Results published in publication PMC4350872, “The Inhibitory Effect of Kakkonto, Japanese Traditional (Kampo) Medicine, on Brain Penetration of Oseltamivir Carboxylate in Mice with Reduced Blood-Brain Barrier Function” (Evidence-based Complementary and Alternative Medicine : eCAM, 2015).
Like-named read-outs stand apart in the source and are kept apart here.

Experiments:
[1] = Plasma and cerebral concentrations of oseltamivir and OC after oral administration of OP; assay type: in vivo, C57BL/6 mice; conditions: OP 300 mg/kg p.o.; for AUC(0-t): C57BL/6, mouse, plasma, po, 300 mg/kg, read-out: AUC0–120 Plasma (converted); for mean brain-to-plasma ratio (BPR): mean AUCbrain / mean AUCplasma
Experimental: OP (300 mg/kg in 0.2 mL saline) was orally administered 4 h after the third injection of LPS. […] The brain tissue of mice was rapidly removed after the decapitation and rinsed in ice-cold PBS. Three to 9 mice were used at each sampling time point in each group.
Oseltamivir and OC levels in plasma and brain tissues were quantified by HPLC, as described in our previous study. Blood samples collected from the jugular vein were centrifuged to obtain plasma at 4°C (2,000 ×g, 15 min). Brain tissue samples were homogenized in 3.5 mL PBS/g tissue and centrifuged at 4°C (12,000 ×g, 10 min). Oseltamivir and OC were extracted from the resulting supernatant by solid-phase extraction (SPE) using Oasis MCX extraction cartridges (1 cc/30 mg, Waters, Milford, MA, USA) conditioned with 1 mL of methanol followed by 1 mL water. The supernatant sample (1 mL) was drawn through the cartridge and the cartridge was washed with 1 mL of 2% formic acid/water, followed by methanol and 0.005% ammonium hydroxide/methanol. The analytes were eluted with 3 mL of 5% ammonium hydroxide/methanol and evaporated to dryness under nitrogen at 40°C.
The HPLC system consisted of a pump (LC-10ADvp, Shimadzu Corp., Kyoto, Japan), degasser (DGU-12A, Shimadzu Corp.), column (Zorbax SB-CN 5 μm particle size, 4.6 × 250 mm, Agilent Technologies, CA, USA), column oven (CTO-10A, Shimadzu Corp.), and UV absorbance detector (SPD-10AV, Shimadzu Corp.). […] The column temperature was 50°C and the detector was operated at absorbance wavelength of 215 nm.

[2] = tested on: organic anion transporter (OAT) 3; parameters: method as in PMID 19029202; conditions: cited from earlier work
[3] = tested on: multidrug resistance protein (MRP) 4; parameters: method as in PMID 19029202; conditions: cited from earlier work
P-glycoprotein (P-gp) = tested on: P-glycoprotein (P-gp); parameters: method as in PMID 19029202; conditions: cited from earlier work
[4] = parameters: method as in PMID 23881998; conditions: FDA Adverse Event Reporting System 1999 to 2011; cited from earlier work
[5] = Kak group (LPS + kakkonto 125 mg/kg p.o.)
[6] = Mao group (LPS + maoto 125 mg/kg p.o.)

Compound	AUC(0-t) ([1]; Con group (LPS + saline p.o.))	AUC(0-t) [1, 5]	AUC(0-t) [1, 6]	AUC0–120 Brain ([1]; Con group (LPS + saline p.o.))	mean brain-to-plasma ratio (BPR) ([1]; Con group)	AUC0–120 Brain [1, 5]	mean brain-to-plasma ratio (BPR) ([1]; Kak group)	AUC0–120 Brain [1, 6]	mean brain-to-plasma ratio (BPR) ([1]; Mao group)	substrate for OAT3 [2]	substrate for MRP4 [3]	substrate for efflux transporter P-gp (P-glycoprotein (P-gp))	odds ratio, abnormal behavior [4]	odds ratio, delirium [4]
CCC(CC)O[C@@H]1C=C(C(=O)O)C[C@H](N)[C@H]1NC(C)=O [OC, oseltamivir carboxylate]	12700 ng·h/mL	20000 ng·h/mL	14300 ng·h/mL	16.06 min·μg/g brain	21.08 μL/g brain	5.98 min·μg/g brain	4.98 μL/g brain	18.95 min·μg/g brain	22.12 μL/g brain	substrate	substrate			
CCOC(=O)C1=C[C@@H](OC(CC)CC)[C@H](NC(C)=O)[C@@H](N)C1 [Oseltamivir, oseltamivir]	32500 ng·h/mL	84400 ng·h/mL	62500 ng·h/mL	79.35 min·μg/g brain	40.70 μL/g brain	200.21 min·μg/g brain	39.52 μL/g brain	119.92 min·μg/g brain	31.98 μL/g brain			substrate		
CCOC(=O)C1=C[C@@H](OC(CC)CC)[C@H](NC(C)=O)[C@@H](N)C1 [Tamiflu, Oseltamivir phosphate]													29.35	13.50
